The record followed here is patent publication US20120283282A1, “Photoproducts of Tryptophan, Their Synthesis and Uses Thereof” (priority 2009, published 2012).

Molecules are shown by their SMILES.

In this assay the test system is hepatic glucose output. Briefly: Glucose production assay in primary hepatocytes. It counts as cell-based. The following applies: FIG. 5. How it is done:
Primary hepatocytes were cultured in six-well plates (1.4 times 10^6 cells per well) in DMEM with 10% FBS or, in case of hormonal treatments, in serum-free DMEM. The medium was then replaced with 1 ml of glucose production buffer consisting of glucose-free DMEM (pH 7.4), without phenol red, supplemented with 20 mM sodium lactate and 2 mM sodium pyruvate. After a 3-h incubation, 0.5 ml of medium was collected and the glucose concentration measured with a colorimetric glucose assay kit (Sigma). The readings were then normalized to the total protein content determined from the whole-cell lysates. (Yoon J C, et al. Nature 413: 131-8, 2001.)

On to `c1ccc2c(-c3nccc4c3[nH]c3ccccc34)c[nH]c2c1` (single isomer, unassigned) [Compound F7, 1-(1H-indol-3-yl)-9H-pyrido[3,4-b]indole], for which the hepatic glucose output entry was “decreases hepatic glucose output”.
